Legend:
Histamine H3 receptor [1] = target: Histamine H3 receptor (Rattus norvegicus, UniProt Q9QYN8); experiment: Binding affinity to rat histamine H3 receptor
Histamine H3 receptor [2] = target: Histamine H3 receptor (Homo sapiens, UniProt Q9Y5N1); experiment: Binding affinity to human histamine H3 receptor
Cytochrome P450 1A2 = target: T1, Cytochrome P450 1A2 (Homo sapiens, UniProt P05177); experiment: Inhibition of CYP1A2 (unknown origin); format: ADME
T1 sequence (P05177 whole entry): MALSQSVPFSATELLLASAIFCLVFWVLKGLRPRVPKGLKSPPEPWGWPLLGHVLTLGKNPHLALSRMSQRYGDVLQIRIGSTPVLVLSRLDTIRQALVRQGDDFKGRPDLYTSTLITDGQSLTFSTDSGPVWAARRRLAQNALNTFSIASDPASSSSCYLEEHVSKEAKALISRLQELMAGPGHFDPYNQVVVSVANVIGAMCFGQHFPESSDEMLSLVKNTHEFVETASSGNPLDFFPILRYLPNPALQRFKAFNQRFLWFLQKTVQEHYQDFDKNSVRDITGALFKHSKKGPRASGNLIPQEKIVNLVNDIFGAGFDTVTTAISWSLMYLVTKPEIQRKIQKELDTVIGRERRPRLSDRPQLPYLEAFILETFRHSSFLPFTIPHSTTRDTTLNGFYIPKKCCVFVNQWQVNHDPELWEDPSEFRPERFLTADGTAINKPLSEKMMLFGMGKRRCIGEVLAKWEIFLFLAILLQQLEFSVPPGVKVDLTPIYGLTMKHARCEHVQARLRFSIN

[3] = Half life in rat liver microsomes; format: ADME
[4] = Half life in monkey liver microsomes; format: ADME, Macaca mulatta; conditions: rhesus monkey
[5] = Half life in dog liver microsomes; format: ADME, Canis lupus familiaris
[6] = Clearance in iv dosed rat; format: ADME, organism-based; conditions: in vivo
[7] = Oral bioavailability in rat; format: ADME, organism-based; conditions: in vivo
[8] = Half life in human liver microsomes; format: ADME
[9] = Half life in iv dosed rat; format: ADME, organism-based; conditions: in vivo
[10] = Half life in mouse liver microsomes; format: ADME
Cytochrome P450 2C19 = Cytochrome P450 2C19 (Homo sapiens, UniProt P33261); experiment: Inhibition of CYP2C19 (unknown origin); format: ADME
Cytochrome P450 2C9 = Cytochrome P450 2C9 (Homo sapiens, UniProt P11712); experiment: Inhibition of CYP2C9 (unknown origin); format: ADME
Cytochrome P450 3A4 = Cytochrome P450 3A4 (Homo sapiens, UniProt P08684); experiment: Inhibition of CYP3A4 (unknown origin); format: ADME
Cytochrome P450 2D6 = Cytochrome P450 2D6 (Homo sapiens, UniProt P10635); experiment: Inhibition of CYP2D6 (unknown origin); format: ADME
Sequence of Cytochrome P450 2D6 (P10635 whole entry): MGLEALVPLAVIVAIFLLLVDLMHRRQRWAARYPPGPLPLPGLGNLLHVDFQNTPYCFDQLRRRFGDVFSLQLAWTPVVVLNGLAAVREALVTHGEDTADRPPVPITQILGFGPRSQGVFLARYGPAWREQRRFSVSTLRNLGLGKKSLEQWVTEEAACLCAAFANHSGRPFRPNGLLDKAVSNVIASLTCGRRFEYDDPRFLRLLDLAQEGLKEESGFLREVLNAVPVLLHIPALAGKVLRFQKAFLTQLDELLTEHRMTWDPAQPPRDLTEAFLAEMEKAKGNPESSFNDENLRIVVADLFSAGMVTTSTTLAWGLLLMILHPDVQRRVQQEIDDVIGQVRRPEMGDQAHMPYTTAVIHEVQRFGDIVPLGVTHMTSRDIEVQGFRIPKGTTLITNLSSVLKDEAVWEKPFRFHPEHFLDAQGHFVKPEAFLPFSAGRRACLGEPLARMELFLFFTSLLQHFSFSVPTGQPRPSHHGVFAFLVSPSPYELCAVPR

Sequence of Histamine H3 receptor (Rattus norvegicus, UniProt Q9QYN8) (Q9QYN8 whole entry): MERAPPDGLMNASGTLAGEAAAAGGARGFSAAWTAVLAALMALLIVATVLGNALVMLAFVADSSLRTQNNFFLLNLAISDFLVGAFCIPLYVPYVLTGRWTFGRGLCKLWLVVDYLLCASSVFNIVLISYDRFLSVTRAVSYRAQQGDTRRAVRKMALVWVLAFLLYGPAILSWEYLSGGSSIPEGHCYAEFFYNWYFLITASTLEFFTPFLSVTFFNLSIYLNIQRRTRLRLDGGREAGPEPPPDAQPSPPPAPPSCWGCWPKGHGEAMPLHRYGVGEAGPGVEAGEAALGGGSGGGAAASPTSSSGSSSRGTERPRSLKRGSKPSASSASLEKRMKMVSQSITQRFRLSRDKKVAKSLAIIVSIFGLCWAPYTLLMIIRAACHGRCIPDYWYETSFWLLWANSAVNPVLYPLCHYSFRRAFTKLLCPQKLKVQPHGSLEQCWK
Sequence of Histamine H3 receptor (Homo sapiens, UniProt Q9Y5N1) (Q9Y5N1 whole entry): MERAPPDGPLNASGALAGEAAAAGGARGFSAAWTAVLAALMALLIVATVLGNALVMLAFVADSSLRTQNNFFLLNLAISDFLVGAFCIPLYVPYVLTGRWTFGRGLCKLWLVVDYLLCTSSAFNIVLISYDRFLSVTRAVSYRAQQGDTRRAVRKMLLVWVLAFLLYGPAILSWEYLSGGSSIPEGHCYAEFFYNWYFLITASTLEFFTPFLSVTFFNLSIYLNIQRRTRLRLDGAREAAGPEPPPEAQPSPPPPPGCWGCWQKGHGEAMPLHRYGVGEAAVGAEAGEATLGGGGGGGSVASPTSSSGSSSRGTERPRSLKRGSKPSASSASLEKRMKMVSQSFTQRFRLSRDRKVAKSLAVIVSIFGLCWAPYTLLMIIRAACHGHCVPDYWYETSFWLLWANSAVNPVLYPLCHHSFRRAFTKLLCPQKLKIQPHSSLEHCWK
Sequence of Cytochrome P450 2C19 (P33261 whole entry): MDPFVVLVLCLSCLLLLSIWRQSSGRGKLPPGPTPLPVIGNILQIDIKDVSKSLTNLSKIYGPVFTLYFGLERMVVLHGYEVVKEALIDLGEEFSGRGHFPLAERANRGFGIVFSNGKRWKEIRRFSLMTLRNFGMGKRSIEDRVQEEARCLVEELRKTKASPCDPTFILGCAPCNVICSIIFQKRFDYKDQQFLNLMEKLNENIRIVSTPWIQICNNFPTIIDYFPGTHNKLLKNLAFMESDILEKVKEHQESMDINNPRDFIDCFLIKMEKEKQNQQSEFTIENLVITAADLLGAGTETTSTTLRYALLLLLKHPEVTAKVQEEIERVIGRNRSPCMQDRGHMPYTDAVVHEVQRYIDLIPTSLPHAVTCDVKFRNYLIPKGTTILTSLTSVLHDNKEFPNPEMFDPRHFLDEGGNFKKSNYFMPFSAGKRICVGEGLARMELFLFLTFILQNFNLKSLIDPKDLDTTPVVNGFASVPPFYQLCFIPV
Sequence of Cytochrome P450 2C9 (P11712 whole entry): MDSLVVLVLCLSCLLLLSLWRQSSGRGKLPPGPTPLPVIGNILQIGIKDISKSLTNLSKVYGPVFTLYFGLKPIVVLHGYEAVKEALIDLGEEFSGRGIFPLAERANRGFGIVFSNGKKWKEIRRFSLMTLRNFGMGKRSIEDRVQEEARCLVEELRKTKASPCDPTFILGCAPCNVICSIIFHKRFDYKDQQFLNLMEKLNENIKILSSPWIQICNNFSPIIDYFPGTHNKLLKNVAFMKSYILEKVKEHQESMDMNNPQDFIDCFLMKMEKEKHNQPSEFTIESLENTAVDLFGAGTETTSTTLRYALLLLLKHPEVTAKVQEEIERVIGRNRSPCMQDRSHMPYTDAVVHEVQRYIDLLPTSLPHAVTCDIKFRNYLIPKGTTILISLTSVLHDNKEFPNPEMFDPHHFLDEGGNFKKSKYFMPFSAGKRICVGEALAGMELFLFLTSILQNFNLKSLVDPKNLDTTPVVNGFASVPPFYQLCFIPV
Sequence of Cytochrome P450 3A4 (P08684 whole entry): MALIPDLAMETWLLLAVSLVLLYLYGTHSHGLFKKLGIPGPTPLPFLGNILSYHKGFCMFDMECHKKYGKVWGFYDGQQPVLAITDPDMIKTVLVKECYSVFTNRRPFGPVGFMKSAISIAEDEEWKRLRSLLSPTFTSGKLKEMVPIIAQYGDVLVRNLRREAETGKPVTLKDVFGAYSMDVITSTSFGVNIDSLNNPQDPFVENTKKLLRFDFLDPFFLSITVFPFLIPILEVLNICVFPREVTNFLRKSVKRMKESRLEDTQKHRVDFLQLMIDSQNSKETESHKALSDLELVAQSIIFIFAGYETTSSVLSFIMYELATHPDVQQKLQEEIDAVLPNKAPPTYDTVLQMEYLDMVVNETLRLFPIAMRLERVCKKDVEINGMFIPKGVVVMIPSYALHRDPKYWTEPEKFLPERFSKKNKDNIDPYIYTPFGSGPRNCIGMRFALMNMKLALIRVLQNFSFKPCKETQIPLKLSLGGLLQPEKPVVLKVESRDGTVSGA

Row | Ki (Histamine H3 receptor [1]) [nM] | Ki (Histamine H3 receptor [2]) [nM] | IC50 (Cytochrome P450 1A2) [µM] | half-life [3] [min] | half-life [4] [min] | half-life [5] [min] | clearance [6] [mL/min/kg] | bioavailability [7] [%] | half-life [8] [min] | half-life [9] [min] | half-life [10] [min] | IC50 (Cytochrome P450 2C19) [µM] | IC50 (Cytochrome P450 2C9) [µM] | IC50 (Cytochrome P450 3A4) [µM] | IC50 (Cytochrome P450 2D6) [µM] | Compound
1 | 103 | 49 |  |  |  |  |  |  |  |  |  |  |  |  |  | Cc1cc(OCCCN2CCC[C@@H]2C)ccc1C1=NNC(=O)C2CC12 (mixture of isomers)
2 | 57 | 13 |  |  |  |  |  |  |  |  |  |  |  |  |  | C[C@H]1CCCN1CCCOc1ccc(C2=NNC(=O)C3CC23)cc1 (mixture of isomers)
3 | 13 | 3.7 | > 30 | > 40 | > 40 | > 40 | 11 | > 25 | > 40 | 84 | > 40 |  |  |  |  | C[C@@H]1CCCN1CCCOc1ccc(C2=NNC(=O)C3CC23)cc1 (stereo not given in full)
4 | 9.8 | 2.3 | > 30 | > 40 | > 40 | > 40 | 19 | > 25 | > 40 | 108 | > 40 | > 30 | > 30 | > 30 | > 30 | C[C@H](COc1ccc(C2=NNC(=O)C3CC23)cc1)CN1CCC[C@H]1C (mixture of isomers)

— ChEMBL document CHEMBL3414489, “3,4-Diaza-bicyclo[4.1.0]hept-4-en-2-one phenoxypropylamine analogs of irdabisant (CEP-26401) as potent histamine-3 receptor inverse agonists with robust wake-promoting activity” (Eur J Med Chem, 2015)
